Laboratory results as given in US11447471B2, “α,β-unsaturated amide compound” (KYOWA KIRIN CO., LTD., priority 2017, dated 2022).

Each molecule was assayed on OVTOKO cells (assay: Cell growth inhibitory effect on human ovarian cancer cell line (cell counting kit 8, 6 days)). Conditions: 144 h, 6 days incubation.
Format: cell-based
Source text: NCI-H226 cells, a human mesothelioma cell line (ATCC, CRL-5826), NCI-H322 cells, a human lung cancer cell line (the European Collection of Authenticated Cell Cultures, 95111734), OUTOKO cells, a human ovarian cancer cell line (JCRB cell bank, KRB1048) and […] were each subcultured by keeping the cell density under 80% in a RPMI1640 culture medium with 10% fetal bovine serum (FBS). NCI-H226 cells, NCI-H322 cells and SSP-25 cells were each suspended in the RPMI1640 culture medium mentioned above, and plated to a 96-well flat-bottom plate at 500 cells/well in each well, and incubated at 37° C. in an incubator with 5% CO2 for one day. After the incubation, the evaluation of cell growth inhibitory activity was started. OVTOKO cells were suspended in the RPMI1640 culture medium mentioned above, and plated to a 96-well flat-bottom plate at 250 cells/well in each well, and incubated it at 37° C. in an incubator with 5% CO2 for one day. After the incubation, the evaluation of the cell growth inhibitory activity was started. The next day, a test compound was serially diluted to 5 times of its final concentration in the RPM11640 culture medium mentioned above, and the diluted solution was added to each well. In this case, the final concentration of DMSO in each well was adjusted to 0.1%. After the test compound was added, cells were incubated at 37° C. in an incubator with 5% CO2 for 6 days. At the addition of the test compound and 6 days after the addition, the cell counting measurement was performed using a cell counting kit 8 (made by DOJINDO) according to a protocol equivalent to DOJINDO's recommendation. A reagent contained in the kit was added to each plate and color reaction was performed for 2 or 3 hours at 37° C. in an incubator with 5% CO2. After the reaction, an absorbance at wavelength of 450 nm was measured using a microplate reader. A growth inhibition rate was calculated according to the following formula, from which the concentration of a test compound at which cell growth was inhibited by 50% (GI50 value) was determined.

GI50 [nM]	SMILES
≤ 3000	C=CC(=O)NC1COc2c(Oc3ccc(C(F)(F)F)cc3)cccc2C1=O (racemic) [Compound 40, N-[4-Oxo-8-{4-(trifluoromethyl)phenoxy}chroman-3-yl]acrylamide]
≤ 3000	C=CC(=O)N[C@@H]1c2ccc(Oc3ccc(C(F)(F)F)cc3)cc2OC[C@@H]1F (relative stereo) [Compound 21, cis-N-[3-Fluoro-7-{4-(trifluoromethyl)phenoxy}chroman-4-yl]acrylamide]
≤ 3000	C=CC(=O)N[C@@H]1c2ccc(Oc3ccc(C(F)(F)F)cc3)cc2OC[C@H]1F (relative stereo) [Compound 22, trans-N-[3-Fluoro-7-{4-(trifluoromethyl)phenoxy}chroman-4-yl]acrylamide]
≤ 3000	C=CC(=O)N[C@@H]1CC[C@H](Oc2ccc(C(F)(F)F)cc2)c2ncc(Cl)cc21 (relative stereo) [Compound 190, N-((5R*,8S*)-3-Chloro-8-(4-(trifluoromethyl)phenoxy)-5,6,7,8-tetrahydroquinolin-5-yl)acrylamide]
≤ 3000	C=CC(=O)N[C@H]1CC[C@@H](Oc2ccc(C(F)(F)F)cc2)c2nc(Cl)ccc21 (relative stereo) [Compound 241, cis-N-[2-Chloro-8-{4-(trifluoromethyl)phenoxy}-5,6,7,8-tetrahydroquinolin-5-yl]acrylamide]
≤ 3000	C=CC(=O)NC1CCOc2cc(Oc3ccc(C(F)(F)F)cc3)ccc21 (centres unmarked) [Compound 5, N-[7-{4-(trifluoromethyl)phenoxy}chroman-4-yl]acrylamide]
≤ 3000	[H]/C=C/C(=O)NC1CCOc2c1ccc(Oc1ccc(Cl)cc1)c2C (centres unmarked) [Compound 27, N-{7-(4-Chlorophenoxy)-8-methylchroman-4-yl}acrylamide]
≤ 3000	[H]/C=C/C(=O)NC1CCOc2c1ccc(Oc1ccc(C(F)(F)F)cc1)c2C (centres unmarked) [Compound 28, N-[8-Methyl-7-{4-(trifluoromethyl)phenoxy}chroman-4-yl]acrylamide]
≤ 3000	[H]/C=C/C(=O)NC1CCOc2c1ccc(Oc1ccc(Cl)cc1)c2OC (centres unmarked) [Compound 32, N-{7-(4-Chlorophenoxy)-8-methoxychroman-4-yl}acrylamide]
≤ 3000	C=CC(=O)NC1COc2cccc(Oc3ccc(C(F)(F)F)cc3)c2C1 (centres unmarked) [Compound 35, N-[5-{4-(Trifluoromethyl)phenoxy}chroman-3-yl]acrylamide]
≤ 3000	C=CC(=O)NC1COc2cc(Oc3ccc(Cl)cc3)ccc2C1 (centres unmarked) [Compound 37, N-{7-(4-Chlorophenoxy)chroman-3-yl}acrylamide]
≤ 3000	C=CC(=O)NC1COc2c(Oc3ccc(Cl)cc3)ccc(C)c2C1 (centres unmarked) [Compound 41, N-{8-(4-Chlorophenoxy)-5-methylchroman-3-yl}acrylamide]
≤ 3000	C=CC(=O)NC1COc2c(cccc2Oc2ccc(Cl)cc2)C1 (centres unmarked) [Compound 59, N-{8-(4-chlorophenoxy)chroman-3-yl}acrylamide]
≤ 3000	C=CC(=O)NC1COc2c(cccc2Oc2ccc(C(F)(F)F)cc2)C1 (centres unmarked) [Compound 61, N-[8-{4-(Trifluoromethyl)phenoxy}chroman-3-yl]acrylamide]
≤ 3000	C=CC(=O)Nc1cncc(Oc2cccc(C(F)(F)F)c2)c1 [Compound 95, N-[5-{3-(Trifluoromethyl)phenoxy}pyridin-3-yl)acrylamide]
≤ 3000	C=CC(=O)Nc1cncc(Oc2ccc(C(F)(F)F)cc2)c1 [Compound 96, N-[5-{4-(Trifluoromethyl)phenoxy}pyridin-3-yl]acrylamide]
≤ 3000	C=CC(=O)Nc1cncc(Oc2ccc(OC(F)(F)F)cc2)c1 [Compound 100, N-[5-{4-(Trifluoromethoxy)phenoxy}pyridin-3-yl]acrylamide]
≤ 3000	C=CC(=O)Nc1cncc(Oc2ccc(Cl)c(Cl)c2)c1 [Compound 105, N-{5-(3,4-Dichlorophenoxy)pyridin-3-yl}acrylamide]
≤ 3000	C=CC(=O)Nc1cncc(Oc2ccc(C(F)(F)F)c(F)c2)c1 [Compound 106, N-[5-{3-Fluoro-4-(trifluoromethyl)phenoxy}pyridin-3-yl]acrylamide]

GI50 [nM]	SMILES
≤ 3000	C=CC(=O)Nc1cncc(Oc2cncc(C(F)(F)F)c2)c1 [Compound 107, N-(5-[{5-(Trifluoromethyl)pyridin-3-yl}oxy]pyridin-3-yl)acrylamide]
≤ 3000	C=CC(=O)Nc1cncc(Oc2ccnc(C(F)(F)F)c2)c1 [Compound 108, N-(5-[{2-(Trifluoromethy)pyridin-4-yl}oxy]pyridin-3-yl)acrylamide]
≤ 3000	C=CC(=O)Nc1cncc(Oc2ccc(C(F)(F)F)cn2)c1 [Compound 109, N-(5-[{5-(Trifluoromethyl)pyridin-2-yl}oxy]pyridin-3-yl)acrylamide]
≤ 3000	C=CC(=O)Nc1ccc(Oc2ccccc2)c2ncccc12 [Compound 111, N-(8-Phenoxyquinolin-5-yl)acrylamide]
≤ 3000	C=CC(=O)Nc1ccc(Oc2ccccc2)c2nc(C)ccc12 [Compound 112, N-(2-Methyl-8-phenoxyquinolin-5-yl)acrylamide]
≤ 3000	C=CC(=O)Nc1ccc(Oc2cccc(Cl)c2)c2ncccc12 [Compound 114, N-{8-(3-Chlorophenoxy)quinolin-5-yl}acrylamide]
≤ 3000	C=CC(=O)Nc1ccc(Oc2ccc(Cl)cc2)c2nc(C)ccc12 [Compound 117, N-{8-(4-Chlorophenoxy)-2-methylquinolin-5-yl}acrylamide]
≤ 3000	C=CC(=O)Nc1ccc(OCC2CCC(F)(F)CC2)c2ncccc12 [Compound 126, N-[8-{(4,4-Difluorocyclohexyl)methoxy}quinolin-5-yl]acrylamide]
≤ 3000	[H]/C=C/C(=O)NCc1ccc(Oc2ccc(Cl)cc2)c2ncccc12 [Compound 134, N-[{8-(4-Chlorophenoxy)quinolin-5-yl}methyl]acrylamide]
≤ 3000	[H]/C=C/C(=O)NCc1ccc(Oc2cccc(C(F)(F)F)c2)c2ncccc12 [Compound 137, N-([8-{3-(Trifluoromethyl)phenoxy}quinolin-5-yl]methyl)acrylamide]
≤ 3000	[H]/C=C/C(=O)NCc1ccc(Oc2ccc(C(F)(F)F)cc2)c2ncccc12 [Compound 138, N-([8-{4-(Trifluoromethyl)phenoxy}quinolin-5-yl]methyl)acrylamide]
≤ 3000	[H]/C=C/C(=O)NCc1ccc(Oc2ccc(C(F)(F)F)nc2)c2ncccc12 [Compound 143, N-{(8-[{6-(Trifluoromethyl)pyridin-3-yl}oxy]quinolin-5-yl)methyl}acrylamide]
≤ 3000	[H]/C=C/C(=O)NCc1cc(Oc2ccc(C(F)(F)F)nc2)nc2ccccc12 [Compound 149, N-{(2-[{6-(Trifluoromethyl)pyridin-3-yl}oxy]quinolin-4-yl)methyl}acrylamide]
≤ 3000	[H]/C=C/C(=O)NCc1cc(Oc2ccnc(Cl)c2)nc2ccccc12 [Compound 150, N-([2-{(2-Chloropyridin-4-yl)oxy}quinolin-4-yl]methyl)acrylamide]
≤ 3000	[H]/C=C/C(=O)NCc1cc(Oc2ccnc(C(F)(F)F)c2)nc2ccccc12 [Compound 151, N-{(2-[{2-(Trifluoromethyl)pyridin-4-yl}oxy]quinolin-4-yl)methyl}acrylamide]
≤ 3000	C=CC(=O)NC1CCOc2c1ccc(Oc1ccc(F)c(F)c1)c2OC (centres unmarked) [Compound 164, N-{7-(3,4-Difluorophenoxy)-8-methoxychroman-4-yl}acrylamide]
≤ 3000	C=CC(=O)NC1CCOc2c1ccc(Oc1ccc(C(F)(F)F)nc1)c2Cl (centres unmarked) [Compound 168, N-(8-Chloro-7-[{6-(trifluoromethyl)pyridin-3-yl}oxy]chroman-4-yl)acrylamide]
≤ 3000	C=CC(=O)NC1CCOc2c1ccc(Oc1ccc(C(F)(F)F)nc1)c2Br (centres unmarked) [Compound 169, N-(8-Bromo-7-[{6-(trifluoromethyl)pyridin-3-yl}oxy]chroman-4-yl)acrylamide]
≤ 3000	C=CC(=O)NCc1ccc(Oc2ccc(Cl)cc2)c2c1CCCO2 [Compound 176, N-[{8-(4-Chlorophenoxy)chroman-5-yl}methyl]acrylamide]

SMILES	GI50 [nM]
C=CC(=O)NC1COc2c(cccc2Oc2cnc(C(F)(F)F)nc2)C1 (centres unmarked) [Compound 155, N-(8-[{2-(Trifluoromethyl)pyrimidin-5-yl}oxy]chroman-3-yl)acrylamide]	≤ 3000
C=CC(=O)NC1COc2c(cccc2Oc2cnc(C(F)(F)F)cn2)C1 (centres unmarked) [Compound 157, N-(8-[{5-(Trifluoromethyl)pyrazin-2-yl}oxy]chroman-3-yl)acrylamide]	≤ 3000
C=CC(=O)NC1COc2c(cc(C(F)(F)F)cc2Oc2ccc(C(F)(F)F)nc2)C1 (centres unmarked) [Compound 162, N-{6-(Trifluoromethyl)-8-[{6-(trifluoromethyl)pyridin-3-yl}oxy]chroman-3-yl}acrylamide]	≤ 3000
